Tests used:
[1] = molecular target: Dihydrofolate reductase (Trypanosoma cruzi); test: Inhibitory activity against Trypanosoma cruzi dihydrofolate reductase
[2] = molecular target: Dihydrofolate reductase (Trypanosoma cruzi); test: as above; remark: listed apart in the source

Compound | Ki [1] [nM] | Ki [2] [nM]
Nc1nc(N)c2nc(CN(CCCCCC(=O)O)c3ccc(C(=O)NC(CCC(=O)O)C(=O)O)cc3)cnc2n1 (centres undefined) [2-{4-[(5-Carboxy-pentyl)-(2,4-diamino-pteridin-6-ylmethyl)-amino]-benzoylamino}-pentanedioic acid] | 0.183 | 
Nc1nc(N)c2nc(CN(CCCCC(=O)O)c3ccc(C(=O)NC(CCC(=O)O)C(=O)O)cc3)cnc2n1 (centres undefined) [2-{4-[(4-Carboxy-butyl)-(2,4-diamino-pteridin-6-ylmethyl)-amino]-benzoylamino}-pentanedioic acid] |  | 0.131
CCOC(=O)CCCCN(Cc1cnc2nc(N)nc(N)c2n1)c1ccc(C(=O)NC(CCC(=O)OCC)C(=O)OCC)cc1 (centres undefined) [2-{4-[(2,4-Diamino-pteridin-6-ylmethyl)-(4-ethoxycarbonyl-butyl)-amino]-benzoylamino}-pentanedioic acid diethyl ester] |  | 46
CCOC(=O)CCCCCN(Cc1cnc2nc(N)nc(N)c2n1)c1ccc(C(=O)NC(CCC(=O)OCC)C(=O)OCC)cc1 (centres undefined) [2-{4-[(2,4-Diamino-pteridin-6-ylmethyl)-(5-ethoxycarbonyl-pentyl)-amino]-benzoylamino}-pentanedioic acid diethyl ester] |  | 56

Reference: BindingDB's records for doi:10.1016/s0960-894x(99)00213-9 (Cardiff University, 1999)
